Values after ≈ are worked out from the molar mass of the structure shown.

As a reminder, the solubility is how much of the substance goes into solution per volume. As usually defined, the logD is the decadic logarithm of the distribution of all forms, ionised or not, between an organic phase and buffer at a given pH. A low value points to lower lipophilicity. The half-life is the time needed for the level to fall by half in the phase considered. A lower half-life goes with rapid decline.

A short description of data set [1]: Metabolic stability in Sprague-Dawley rat liver microsomes assessed as remaining parent compound level at 10 uM preincubated for 5 mins with NADPH generating system followed by liver microsomes addition and measured after 60 mins by HPLC analysis. Particulars: read-out: Stability. It counts as ADME, Microsome. (Liver microsomes are a subcellular fraction often used to study metabolism.)

A short description of data set [2]: Aqueous solubility of the compound in distilled water after 24 hrs by HPLC analysis. Format: physicochemical. Particulars: for solubility: buffer, 24 h; for solubility at 24 h: distilled water.
A short description of data set [3]: Log D, lipophilicity of the compound by HPLC analysis. It counts as physicochemical.
A short description of data set [4]: Ratio of drug uptake in C57BL6/JRj mouse brain to plasma at 10 mg/kg, po administered as single dose and measured after 2 hrs by LS-MS analysis. Format: ADME, organism-based.
A short description of data set [5]: Drug uptake in C57BL6/JRj mouse plasma at 10 mg/kg, po administered as single dose and measured after 2 hrs by LS-MS analysis. It counts as ADME, organism-based. Particulars: in vivo.
Data set [6] is described as follows: Half life in C57BL6/JRj mouse at 10 mg/kg, po administered as single dose and measured after 2 hrs by LS-MS analysis. The note with it: in vivo. Format: ADME, organism-based.
Data set [7] in a line: Drug uptake in C57BL6/JRj mouse liver at 10 mg/kg, po administered as single dose and measured after 2 hrs by LS-MS analysis. Format: ADME, organism-based. The note with it: in vivo.
Data set [8] can be described thus: Drug uptake in C57BL6/JRj mouse brain at 10 mg/kg, po administered as single dose and measured after 2 hrs by LS-MS analysis. Particulars: read-out: Drug uptake. It counts as ADME, organism-based.

For `O=C(O)CSc1nc(Cl)cc(Nc2cccc3c2CCCC3)n1`, in data set [1], the remaining at 1 h, 10 µM is over 50%. Further, in data set [2], the solubility result is given as “Soluble”.
As to `CCCCC(Sc1nc(Cl)cc(Nc2cccc(C)c2C)n1)C(=O)O` (stereo not given), the remaining at 1 h, 10 µM in data set [1] is over 50%.
As to `C=C(c1ccc(C(=O)O)cc1)c1cc2c(cc1C)C(C)(C)CCC2(C)C` [BEXAROTENE], in data set [3], the logD was determined as 4.74. This molecule registered a solubility at 24 h in data set [2] of 0.3 µg/mL (≈ 0.861 µM).
For the molecule `Cc1cccc(Nc2cc(Cl)nc(SCC(=O)O)n2)c1C` [PIRINIXIC ACID], the remaining at 1 h, 10 µM in data set [1] was over 50%. For the same molecule, the logD in data set [3] worked out at 1.63. This molecule also gave a solubility at 24 h in data set [2] of 48.6 µg/mL (≈ 150 µM).
For the molecule `CN(c1cc(C(F)(F)F)nc(OCCC(=O)O)n1)c1cccc2c1CCC2`, in data set [1], the remaining at 1 h, 10 µM was over 50%. Moreover, the BPR in data set [4] stood at 1.5%. Besides, the Drug uptake result in data set [5] and in data set [7] was “Active” each time. In data set [6], the half-life was 4.2 h. Besides, in data set [2], the solubility entry is on record as “Soluble”. Also, the concentration at 2 h in data set [8] is 275 ng/g.

The record behind these values is ChEMBL document CHEMBL4411340, “Tuning Nuclear Receptor Selectivity of Wy14,643 towards Selective Retinoid X Receptor Modulation” (J Med Chem, 2019).
